Assay [1] has as its target T1, T. thermophilus complex I (NADH/FMN site, subunit Nqo1) (Thermus thermophilus, UniProt Q56222).
T1 construct: same complex as P1, native from HB8 membranes; crystals with added recombinant His-tagged Nqo16; cryo-EM samples without Nqo16 (15 subunits); with NADH-quinone oxidoreductase subunit 2; NADH-quinone oxidoreductase subunit 3; NADH-quinone oxidoreductase subunit 4; NADH-quinone oxidoreductase subunit 5; NADH-quinone oxidoreductase subunit 6; NADH-quinone oxidoreductase subunit 7; NADH-quinone oxidoreductase subunit 8; NADH-quinone oxidoreductase subunit 9; NADH-quinone oxidoreductase subunit 10; NADH-quinone oxidoreductase subunit 11; NADH-quinone oxidoreductase subunit 12; NADH-quinone oxidoreductase subunit 13; NADH-quinone oxidoreductase subunit 14; NADH-quinone oxidoreductase subunit 15; NADH-quinone oxidoreductase subunit 16
T1 sequence (Q56222 1-438): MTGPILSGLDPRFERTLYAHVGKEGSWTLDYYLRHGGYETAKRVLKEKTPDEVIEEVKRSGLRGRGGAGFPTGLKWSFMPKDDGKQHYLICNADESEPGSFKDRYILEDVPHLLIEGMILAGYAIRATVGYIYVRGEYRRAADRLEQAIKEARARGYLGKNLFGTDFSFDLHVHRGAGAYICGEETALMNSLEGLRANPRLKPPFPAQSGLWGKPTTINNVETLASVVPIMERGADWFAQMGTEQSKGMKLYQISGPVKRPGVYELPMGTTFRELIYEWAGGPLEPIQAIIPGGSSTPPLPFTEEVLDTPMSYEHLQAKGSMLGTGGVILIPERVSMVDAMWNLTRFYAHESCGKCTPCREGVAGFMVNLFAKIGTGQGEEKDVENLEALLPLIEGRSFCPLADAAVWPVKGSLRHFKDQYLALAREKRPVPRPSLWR
T1 sequence (Q56221 2-181 partner): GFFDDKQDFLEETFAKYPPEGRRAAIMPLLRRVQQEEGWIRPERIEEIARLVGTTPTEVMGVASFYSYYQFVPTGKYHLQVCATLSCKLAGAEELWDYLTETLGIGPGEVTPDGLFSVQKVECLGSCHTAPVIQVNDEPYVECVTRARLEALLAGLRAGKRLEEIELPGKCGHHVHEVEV
T1 sequence (Q56223 1-783 partner): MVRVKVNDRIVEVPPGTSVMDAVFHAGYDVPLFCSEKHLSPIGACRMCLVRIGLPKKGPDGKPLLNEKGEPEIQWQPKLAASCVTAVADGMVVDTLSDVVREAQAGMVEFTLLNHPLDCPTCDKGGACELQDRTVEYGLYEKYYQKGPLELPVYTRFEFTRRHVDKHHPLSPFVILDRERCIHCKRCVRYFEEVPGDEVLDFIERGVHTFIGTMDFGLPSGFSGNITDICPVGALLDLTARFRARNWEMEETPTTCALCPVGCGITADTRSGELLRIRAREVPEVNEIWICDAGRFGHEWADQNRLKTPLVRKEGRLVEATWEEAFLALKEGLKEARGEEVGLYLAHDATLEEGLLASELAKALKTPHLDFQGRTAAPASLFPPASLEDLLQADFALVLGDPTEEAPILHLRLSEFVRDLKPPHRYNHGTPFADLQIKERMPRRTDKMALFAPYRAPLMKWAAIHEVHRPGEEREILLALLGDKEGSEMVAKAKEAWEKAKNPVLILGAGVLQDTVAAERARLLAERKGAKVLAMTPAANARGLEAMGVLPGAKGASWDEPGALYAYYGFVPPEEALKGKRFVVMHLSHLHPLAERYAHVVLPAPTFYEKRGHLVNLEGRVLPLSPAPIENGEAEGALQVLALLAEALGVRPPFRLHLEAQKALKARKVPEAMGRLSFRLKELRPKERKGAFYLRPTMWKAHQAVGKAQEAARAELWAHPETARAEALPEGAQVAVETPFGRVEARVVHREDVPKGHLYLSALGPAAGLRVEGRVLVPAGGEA
Briefly: X-ray crystal structure. The class given is binding. The note with it: resident cofactor in Nqo1; same crystal.

For assay [2], the target named is T1, T. thermophilus complex I (NADH/FMN site, subunit Nqo1). Description: X-ray crystal structure; also cryo-EM (6ZIY). In kind it is binding. The note with it: crystal soaked 4.5 min in 20 mM NADH, 20 mM dithionite, anaerobic, pH 6.0.
The target in assay [3] is T2, T. thermophilus complex I (quinone site, Q-site) (Thermus thermophilus, UniProt Q56218+Q56220+Q60019).
T2 construct: gene nqo4; native intact complex purified from T. thermophilus HB8 membranes in TDM; 16 subunits, 550 kDa; for crystals recombinant His-tagged Nqo16 (E. coli) was added; activity preparation has sub-stoichiometric Nqo16; with NADH-quinone oxidoreductase subunit 1; NADH-quinone oxidoreductase subunit 2; NADH-quinone oxidoreductase subunit 3; NADH-quinone oxidoreductase subunit 5; NADH-quinone oxidoreductase subunit 7; NADH-quinone oxidoreductase subunit 9; NADH-quinone oxidoreductase subunit 10; NADH-quinone oxidoreductase subunit 11; NADH-quinone oxidoreductase subunit 12; NADH-quinone oxidoreductase subunit 13; NADH-quinone oxidoreductase subunit 14; NADH-quinone oxidoreductase subunit 15; NADH-quinone oxidoreductase subunit 16
Description: X-ray crystal structure. The class given is binding. The note with it: crystal soaked overnight in 500 uM DQ, pH 6.0; Q-site (Y87_4, H38_4).

For assay [4], the target named is T3, Complex I subunit Nqo10 (Thermus thermophilus) (T. thermophilus HB8, UniProt Q56225 1-176).
T3 construct: Nqo10, core subunit of the membrane domain of respiratory complex I, Thermus thermophilus HB8; Endogenous subunit inside the crystallised intact complex; source: purified from T. thermophilus HB8 cells as part of intact complex I (anion exchange, cation exchange, gel filtration)
T3 sequence (looked up): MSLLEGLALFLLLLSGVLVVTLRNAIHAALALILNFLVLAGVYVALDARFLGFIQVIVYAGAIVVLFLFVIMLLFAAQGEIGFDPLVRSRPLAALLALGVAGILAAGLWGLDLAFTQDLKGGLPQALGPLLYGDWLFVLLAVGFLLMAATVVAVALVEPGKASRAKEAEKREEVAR
Briefly: crystal structure; intact complex I purified from T. thermophilus mixed with purified recombinant Nqo16 (1:0.2 CXI:Nqo16), sitting drop at 23 °C, 100 mM Bis-Tris pH 6.0, 19-25% PEG 4000, 100 mM KCl, 100 mM glutaric acid, detergents; native crystals and crystals soaked or co-crystallised with NADH, decylubiquinone, piericidin A, aureothin or pyridaben. The note with it: both partners purified.

Assay [5] concerns the target T4, Complex I antiporter-like subunit Nqo14 (Thermus thermophilus) (T. thermophilus HB8, UniProt Q56229 1-427).
T4 construct: Nqo14, antiporter-like core subunit of the membrane domain of respiratory complex I, Thermus thermophilus HB8; Endogenous subunit inside the crystallised intact complex; source: purified from T. thermophilus HB8 cells as part of intact complex I (anion exchange, cation exchange, gel filtration)
T4 sequence (looked up): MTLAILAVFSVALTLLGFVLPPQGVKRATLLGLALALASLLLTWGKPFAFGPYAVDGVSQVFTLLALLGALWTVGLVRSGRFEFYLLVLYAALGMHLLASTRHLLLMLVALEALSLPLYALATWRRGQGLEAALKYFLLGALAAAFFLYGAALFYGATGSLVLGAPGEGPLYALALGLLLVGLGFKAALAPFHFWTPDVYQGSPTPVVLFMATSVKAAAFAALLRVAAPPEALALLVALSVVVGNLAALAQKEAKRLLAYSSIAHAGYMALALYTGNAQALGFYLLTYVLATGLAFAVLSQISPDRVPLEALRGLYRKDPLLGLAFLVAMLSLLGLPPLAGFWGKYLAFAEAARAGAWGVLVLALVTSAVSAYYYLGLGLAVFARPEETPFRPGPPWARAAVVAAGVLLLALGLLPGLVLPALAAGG
The description is as above. The note with it: both partners purified.

Here are results for four molecules from paper PMC7434922, “Key role of quinone in the mechanism of respiratory complex I” (Nature Communications, 2020).

Take `Cc1cc2nc3c(=O)[nH]c(=O)nc-3n(C[C@H](O)[C@H](O)[C@H](O)COP(=O)(O)O)c2cc1C` [FMN, flavin-mononucleotide]: the X-ray crystal structure entry in assay [1] is given as “The FMN is coordinated by subunit Nqo1 at the deep end”.

Take `NC(=O)C1=CN([C@@H]2O[C@H](COP(=O)(O)OP(=O)(O)OC[C@H]3O[C@@H](n4cnc5c(N)ncnc54)[C@H](O)[C@@H]3O)[C@@H](O)[C@H]2O)C=CC1` [NADH]: the “X-ray crystal structure; also cryo-EM (6ZIY)” value in assay [2] is given as “Our crystal structure of intact complex I with bound NADH confirms the binding mode”.

With `CCCCCCCCCCC1=C(C)C(=O)C(OC)=C(OC)C1=O` [DQ, decylubiquinone], the X-ray crystal structure result in assay [3] is recorded as “DQ interacts mainly with the residues mentioned above with its hydrocarbon chain surrounded by”.

B1: Complex I subunit Nqo11 (Thermus thermophilus) (natural protein, T. thermophilus HB8, UniProt Q56226 1-95, looked up)
chain: MSYLLTSALLFALGVYGVLTRRTAILVFLSIELMLNAANLSLVGFARAYGLDGQVAALMVIAVAAAEVAVGLGLIVAIFRHRESTAVDDLSELRG
notes: Nqo11, core subunit of the membrane domain of respiratory complex I, Thermus thermophilus HB8; Endogenous subunit inside the crystallised intact complex; source: purified from T. thermophilus HB8 cells as part of intact complex I (anion exchange, cation exchange, gel filtration)
As to B1, the binding result in assay [4] and in assay [5] was “binds” each time.
